# Laboratory results: US20240279231A1, “MAP4K4 INHIBITORS AND METHODS OF SYNTHESIS AND USE THEREOF” (The Board of Regents of the University of Oklahoma, priority 2021, published 2024)
# What was measured:
# [1] = Solubility in polar solvents; assay type: physicochemical; settings: compared with DMX-5804
# Procedure: (§1) First, we attempted base-catalyzed O-alkylation in a variety of conditions (Table 1). […] We also screened various solvents combined with different bases to get DMX-5804. […] However, DMX-5804 was obtained only in small amounts (5-7%), whereas compound 7 was isolated as the major product (88%). To check the stability of compound 7, we refluxed it in dioxane-HCl for 6 h. […] Also, its HPLC retention time was identical to that of DMX-5804 (data not shown).
# [2] = biological target: T1, recombinant MAP4K4 enzyme (Homo sapiens, UniProt O95819); assay: MAP4K4 inhibition assay (cell free, MBP substrate, ADP detection); assay type: biochemical; settings: for IC50: recombinant MAP4K4, MBP substrate, 48 μM ATP, compounds titrated from 900 nM, read-out: concentration for 50% inhibition of MAP4K4 (IC50)
# T1 construct: purchased BioAssay Systems Services (Hayward, CA)
# Procedure: MAP4K4 inhibition assay: MAP4K4 assay for IC50 determination was performed using a kit by BioAssay Systems Services (Hayward, CA). Briefly, MAP4K4 in assay buffer (40 ng in 10 μL) was incubated with varying concentrations of test compounds (5 μL in dimethylsulfoxide) for 15 min at 37° C. The compounds were titrated from 900 nM (final reaction concentration) in 3× steps. Compound dilutions were made in assay buffer with 0.036% dimethylsulfoxide. Reactions were initiated by adding 5 μL reaction mix (2.6 μg/μL MBP, 193 μM ATP; final reaction concentration of 13 μg MBP, 48 μM ATP) and run at 37° C. for 20 min. These kinase reactions were stopped with an ADP detection reagent and fluorescence was measured at 530Ex/590Em. IC50 was computed using GraphPad Prism Nonlinear Sigmoidal Dose-Response fitting.
# MAP4K4 inhibition assay: The MAP4K4 inhibitory activity of DMX-5804, Ribose-analog 9, and regio-isomer 7 were examined in a cell free assay using recombinant MAP4K4 enzyme and myelin basic protein (MBP) as its substrate.
# [3] = Stability on reflux in dioxane-HCl; assay type: physicochemical; settings: refluxed in dioxane-HCl for 6 h
# Procedure: as §1
# cardiomyocyte = settings: oxidative stress-induced, in vitro and in vivo; cited from earlier work
# [4] = mouse infarct model; cited from earlier work
# [5] = Solubility in aqueous medium; assay type: physicochemical
# Text: In order to shift alkylation to desired phenolic site, we changed reaction conditions to acidic by using boron trifluoride diethyl etherate as a Lewis acid (entries 9-11 of Table 1). […] Hypothesizing that the relatively low separated yields of this reaction are due to the insolubility of phenolic derivative in dichloromethane, we decided to perform this reaction in neat conditions with BF3OEt2. This modification produced satisfactory yields of DMX-5804 (entry 10). Further, we added excess of methylglycol as a solvent as well as a reactant in presence of BF3OEt2 to obtain quantitative yields of DMX-5804 in good time (entry 11). In these acidic conditions, the other regioisomer (pyrimidine alkylated compound 7) was completely absent. Previously, the use of BF3OEt2 for phenolic alkylation has been reported. In addition to the compound DMX-5804, we employed this route for synthesis of ribose- and glucose-conjugated analogs. […]
# [6] = compared with F1386-0303; cited from earlier work
# T1 sequence (O95819 whole entry): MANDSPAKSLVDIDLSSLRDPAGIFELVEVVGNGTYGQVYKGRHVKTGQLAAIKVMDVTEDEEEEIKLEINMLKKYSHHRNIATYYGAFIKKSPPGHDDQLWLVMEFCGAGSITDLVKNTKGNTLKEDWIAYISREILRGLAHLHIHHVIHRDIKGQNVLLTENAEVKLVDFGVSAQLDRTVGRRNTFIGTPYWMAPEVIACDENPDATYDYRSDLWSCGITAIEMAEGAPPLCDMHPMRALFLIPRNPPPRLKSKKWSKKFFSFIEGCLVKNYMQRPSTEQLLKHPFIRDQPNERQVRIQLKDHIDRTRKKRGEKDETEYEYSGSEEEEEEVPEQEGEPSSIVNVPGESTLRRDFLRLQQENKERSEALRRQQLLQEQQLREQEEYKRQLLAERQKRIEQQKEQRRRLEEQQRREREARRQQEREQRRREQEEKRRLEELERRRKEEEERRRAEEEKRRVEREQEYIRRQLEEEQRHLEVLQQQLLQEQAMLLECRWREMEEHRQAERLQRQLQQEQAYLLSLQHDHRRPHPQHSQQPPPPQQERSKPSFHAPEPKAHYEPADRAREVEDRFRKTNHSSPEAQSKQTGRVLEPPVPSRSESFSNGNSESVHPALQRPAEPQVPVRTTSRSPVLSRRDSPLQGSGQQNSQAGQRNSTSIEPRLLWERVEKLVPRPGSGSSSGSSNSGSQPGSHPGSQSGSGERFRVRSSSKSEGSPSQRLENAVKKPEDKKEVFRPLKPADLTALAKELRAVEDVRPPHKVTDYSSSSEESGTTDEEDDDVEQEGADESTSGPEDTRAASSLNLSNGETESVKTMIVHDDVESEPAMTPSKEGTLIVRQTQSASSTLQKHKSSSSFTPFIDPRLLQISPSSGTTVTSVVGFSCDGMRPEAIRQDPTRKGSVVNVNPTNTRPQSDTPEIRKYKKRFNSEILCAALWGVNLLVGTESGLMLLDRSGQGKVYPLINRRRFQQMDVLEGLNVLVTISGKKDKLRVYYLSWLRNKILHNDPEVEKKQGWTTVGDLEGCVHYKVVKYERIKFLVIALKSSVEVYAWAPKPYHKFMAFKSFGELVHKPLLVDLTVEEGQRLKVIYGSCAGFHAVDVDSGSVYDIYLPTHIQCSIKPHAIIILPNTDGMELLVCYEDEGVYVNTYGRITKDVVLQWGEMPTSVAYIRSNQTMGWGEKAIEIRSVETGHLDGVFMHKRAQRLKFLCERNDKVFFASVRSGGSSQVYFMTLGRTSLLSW
solubility in polar solvents [1],melting point [°C],stability in acidic conditions [3],IC50 [2] [nM],solubility in aqueous medium [5],Compound,MAP4K4 inhibitory activity ([2]; concentration range tested (titrated from 900 nM in 3× steps)),cardiomyocyte death (cardiomyocyte),infarct size [4],bioavailability in vivo [6]
significantly better than DMX-5804,221 to 224,stable in acidic conditions,,,"COCCOc1ncnc2c1c(-c1ccc(O)cc1)cn2-c1ccccc1 (single isomer, unassigned) [Compound 7, 4-(4-(2-methoxyethoxy)-7-phenyl-7H-pyrrolo[2,3-d]pyrimidin-5-yl)phenol]",no inhibitory activity in the concentration range tested,,,
,,,256,,"O=c1[nH]cnc2c1c(-c1ccc(OC3OC(CO)C(O)C3O)cc1)cn2-c1ccccc1 (stereo not shown) [Compound 9, 5-(4-((3,4-dihydroxy-5-(hydroxymethyl)tetrahydrofuran-2-yl)oxy)phenyl)-7-phenyl-3,7-dihydro-4H-pyrrolo[2,3-d]pyrimidin-4-one]",,,,
,,,206,virtually insoluble,"COCCOc1ccc(-c2cn(-c3ccccc3)c3nc[nH]c(=O)c23)cc1 [DMX-5804, 5-(4-(2-methoxyethoxy)phenyl)-7-phenyl-3,7-dihydro-4H-pyrrolo[2,3-d]pyrimidin-4-one]",,reduces cardiomyocyte death both in vitro and in vivo,significant reduction of infarct size,better bioavailability in vivo than F1386-0303
